Experimental data: ChEMBL document CHEMBL4425181, “Synthesis and antileishmanial activity of the core structure of cristaxenicin A” (Bioorg Med Chem Lett, 2016)

Tests used:
Format in all cases: functional, organism-based
[1] = tested on: Leishmania donovani; experiment: Antileishmanial activity against Leishmania donovani MHOM/NP/03/D10 promastigotes after 72 hrs by EGFP-reporter gene based fluorescence assay; conditions: MHOM/NP/03/D10, 72 h
[2] = tested on: Leishmania amazonensis; experiment: Antileishmanial activity against Leishmania amazonensis promastigotes after 72 hrs by EGFP-reporter gene based fluorescence assay
[3] = tested on: Trypanosoma congolense; experiment: Antitrypanosomal activity against Trypanosoma congolense IL3000 incubated for 48 hrs measured after 4 hrs

Row | IC50 [1] [nM] | IC50 [2] [nM] | IC50 [3] [nM] | Structure (SMILES)
1 | 2400 | – | – | CO[C@H]1OC=C(C(=O)OC(C)C)[C@H]2C/C=C(/C=O)CCCC(=O)[C@H]12
2 | – | 88 | 250 | CC(=O)O/C=C1\CCC/C(C=O)=C\C[C@@H]2C(C(=O)CC=C(C)C)=CO[C@H](OC(C)=O)[C@@H]12
